Data from patent publication EP0760376A1, “PEPTIDES INHIBITING PHOSPHOLIPASE C” (Kyowa Hakko Kogyo Co., Ltd., priority 1995, dated 1996).
≈ marks a conversion by molar mass, not a printed value. Square brackets hold non-standard residues; d marks the D form. Peptide text beside a SMILES is read from it. * marks the point of attachment. 12Ado = NCCCCCCCCCCCC(=O)O; Aun = NCCCCCCCCCCC(=O)O; Butyryl = CCCC(=O)*

How the values were obtained:
[1] = system: Enterococcus hirae ATCC 10541; assay: Antibacterial activity, agar dilution method; assay type: cell-based; details: pH 7
Method: (§1) The antibacterial activity was determined by the agar dilution method using a medium (pH 7.0) which comprises 3 g/l Bacto-tryptone (Difco Laboratories), 1 g/l meat extract, 1 g/l glucose and 16 g/l agar.

[2] = molecular target: T1, PLC-γ1 (Bos taurus, UniProt P08487); assay: PLC-inhibiting activity (release of [3H]inositol phosphate from [3H]PIP2); assay type: biochemical, bovine; details: 37°C, 10 minutes, pH 6.0, read-out: Inhibition rate (%)
T1 construct: A sample of PLC-γ1 was prepared from bovine thymus; from tissue; host or cells: bovine thymus
T1 sequence (P08487 1-1291): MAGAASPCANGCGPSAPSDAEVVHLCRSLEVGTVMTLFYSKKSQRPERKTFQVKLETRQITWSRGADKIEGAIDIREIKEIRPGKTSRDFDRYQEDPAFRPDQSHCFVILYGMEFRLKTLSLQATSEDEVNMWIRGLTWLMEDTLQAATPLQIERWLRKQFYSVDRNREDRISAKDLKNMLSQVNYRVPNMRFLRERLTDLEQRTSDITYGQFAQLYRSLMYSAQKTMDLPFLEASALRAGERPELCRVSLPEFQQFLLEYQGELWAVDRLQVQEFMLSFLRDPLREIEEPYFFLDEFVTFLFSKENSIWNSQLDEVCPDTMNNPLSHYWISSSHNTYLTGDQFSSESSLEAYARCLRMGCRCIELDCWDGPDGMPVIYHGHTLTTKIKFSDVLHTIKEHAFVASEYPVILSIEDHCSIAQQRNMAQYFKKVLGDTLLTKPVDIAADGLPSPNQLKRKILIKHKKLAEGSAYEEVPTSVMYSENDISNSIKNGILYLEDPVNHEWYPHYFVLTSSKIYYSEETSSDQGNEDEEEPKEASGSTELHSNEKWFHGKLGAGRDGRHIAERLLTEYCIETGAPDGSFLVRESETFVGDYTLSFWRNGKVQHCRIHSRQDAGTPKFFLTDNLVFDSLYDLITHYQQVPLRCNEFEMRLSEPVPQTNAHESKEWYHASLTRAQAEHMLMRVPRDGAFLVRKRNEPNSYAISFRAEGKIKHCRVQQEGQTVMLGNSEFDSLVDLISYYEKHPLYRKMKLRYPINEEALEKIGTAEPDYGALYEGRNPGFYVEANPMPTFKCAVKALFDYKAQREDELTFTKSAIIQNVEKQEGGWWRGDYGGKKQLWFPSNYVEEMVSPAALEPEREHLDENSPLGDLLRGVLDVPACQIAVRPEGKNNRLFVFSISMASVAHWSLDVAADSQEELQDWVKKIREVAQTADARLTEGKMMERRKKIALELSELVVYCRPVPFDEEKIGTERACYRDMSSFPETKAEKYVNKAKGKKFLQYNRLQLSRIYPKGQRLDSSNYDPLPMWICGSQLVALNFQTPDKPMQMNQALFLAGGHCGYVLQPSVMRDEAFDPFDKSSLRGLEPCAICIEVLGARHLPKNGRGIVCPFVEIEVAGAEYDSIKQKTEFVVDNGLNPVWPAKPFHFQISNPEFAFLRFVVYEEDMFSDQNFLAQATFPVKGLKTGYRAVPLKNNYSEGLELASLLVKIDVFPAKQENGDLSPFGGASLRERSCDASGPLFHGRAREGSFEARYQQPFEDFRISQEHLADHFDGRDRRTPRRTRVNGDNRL
Method: A sample of PLC-γ1 was prepared from bovine thymus according to the method described in Y. Honma et al., Biochem. J., 269, 13 (1990). A solution having the composition shown in Table 2 below was prepared on ice and was heated to 37°C to start reaction. After incubation for 10 minutes, 2 ml of a chloroform/methanol mixture (2:1, v/v) was added thereto to stop the reaction. The resulting inositol phosphate was extracted with 0.5 ml of 1 N hydrochloric acid. The extract was separated into two liquid phases by centrifugation (2000 x g, 3 minutes), and the amount of ^3H contained in the supernatant (0.7 ml) was measured with a scintillation counter. Table 2 [table] The inhibition rate (X) was calculated according to the following equation: X (%) = (A-C) / (B-C) x 100 [formula] where A is the obtained value of specific radioactivity, B is the value of specific radioactivity obtained when the same amount of water was added instead of the aqueous solution of the test peptide, and C is the value of specific radioactivity obtained when the same amount of water was added instead of the sample and the aqueous solution of the test peptide.

[3] = system: Staphylococcus aureus ATCC 6538P; assay type: cell-based; details: pH 7
Method: as §1

[4] = system: Candida albicans ATCC 10231; assay type: cell-based; details: ATCC 10231, pH 7
Method: as §1

[5] = system: Klebsiella pneumoniae ATCC 10031; assay: Antibacterial activity, agar dilution method; assay type: cell-based; details: medium pH 7.0
Method: as §1

[6] = system: Pseudomonas aeruginosa Bin H No. 1; assay type: cell-based; details: Bin H No. 1, pH 7
Method: as §1

[7] = system: Bacillus subtilis No. 10707; assay type: cell-based; details: No. 10707, pH 7
Method: as §1

[8] = system: KMS-4 cells; assay: Cell growth-inhibiting activity (BrdU incorporation, cell growth detection kit); assay type: cell-based; details: Concentration 1 µM, culturing with peptide for 17 hours
Method: The cell growth-inhibiting activity was determined using a cell growth detection kit (Amersham) in the following manner. KMS-4 cells [M. Nanba et al, International Journal of Cancer, 32, 697 (1983)] were suspended in DMEM medium (Nissui Pharmaceutical Co., Ltd.) containing 10% fetal calf serum at a density of 1-2 x 10^4 cells/ml, and 1 ml of the cell suspension was put into each well of a 24-well plate (Corning Inc.). The cells were cultured in a CO2 incubator (37°C, 5% CO2) for 2 days. Then, the medium was replaced with a fresh DMEM medium containing 10% fetal calf serum, and the test peptide was added thereto, followed by culturing for 17 hours. The medium was replaced with a serum-free DMEM medium, and 0.5 ml of a solution prepared by diluting labeled reagent 5-bromo-2'-deoxyuridine (BrdU) and 5-fluoro-2'-deoxyuridine (FdU) (10:1) 1000-fold with the same medium was added to each well, followed by culturing for 2 hours. Then the medium was removed, and the cells were immobilized with an acetic acid/ethanol solution. The immobilized cells were stained according to the method for the cell growth detection kit of Amersham, and then further stained with a 1% Giemsa solution (Merck & Co., Inc.). The number of cells which incorporated BrdU and the total number of cells within one field of vision of a microscope (approximately 200 cells) were determined, and the proportion (%) of stained cells per field of vision was calculated. The above procedure was repeated 10 times, and the average value thereof was defined as the cell growth activity (%). The cell growth-inhibiting activity was calculated in the following manner. That is, the cell growth inhibition rate was calculated according to the following equation: X (%) = (1-B/A) x 100 [formula] where A is the growth activity when no peptide was added, and B is the growth activity when the test peptide was added.

[9] = system: Proteus vulgaris ATCC 6897; assay type: cell-based; details: ATCC 6897, pH 7
Method: as §1

Compound | MIC (µg/ml) EH [1] [µg/mL] | inhibition at 116 µM ([2]; Concentration 116 µM (aqueous solution of test peptide provided for the test)) [%] | MIC (µg/ml) SA [3] [µg/mL] | MIC (µg/ml) CA [4] [µg/mL] | MIC (µg/ml) KP [5] [µg/mL] | MIC (µg/ml) PA [6] [µg/mL] | MIC (µg/ml) BS [7] [µg/mL] | Inhibition rate (%) [8] [%] | MIC (µg/ml) PV [9] [µg/mL] | inhibition at 23 µM ([2]; Concentration 23 µM (aqueous solution of test peptide provided for the test)) [%]
CSCC[C@H](NC(=O)[C@H](CCCCN)NC(=O)[C@H](CCCNC(=N)N)NC(=O)[C@H](Cc1ccc(O)cc1)NC(=O)[C@H](CC(C)C)NC(C)=O)C(=O)N[C@@H](CCCNC(=N)N)C(=O)N[C@@H](CC(C)C)C(=O)N[C@@H](CCCNC(=N)N)C(=O)N[C@@H](Cc1ccc(O)cc1)C(=O)N1CCC[C@H]1C(=O)N[C@H](C(=O)NCCCCCCCCCCC(N)=O)C(C)C [Compound (I-6), CH3CO-Leu-Tyr-Arg-Lys-Met-Arg-Leu-Arg-Tyr-Pro-Val-NH-(CH2)10CONH2] (Ac-LYRKMRLRYPV[Aun]-NH2) | 171 (≈ 99.5 µM) | 85 | 171 (≈ 99.5 µM) | 171 (≈ 99.5 µM) | 43 (≈ 25 µM) | 85 (≈ 49.4 µM) | 43 (≈ 25 µM) | 57 | 43 (≈ 25 µM) | 
CCCC(=O)N[C@@H](CC(C)C)C(=O)N[C@@H](Cc1ccc(O)cc1)C(=O)N[C@@H](CCCNC(=N)N)C(=O)N[C@@H](CCCCN)C(=O)N[C@@H](CCSC)C(=O)N[C@@H](CCCNC(=N)N)C(=O)N[C@@H](CC(C)C)C(=O)N[C@@H](CCCNC(=N)N)C(=O)N[C@@H](Cc1ccc(O)cc1)C(=O)N1CCC[C@H]1C(=O)N[C@H](C(=O)NCCCCCCCCCCCC(N)=O)C(C)C [Compound (I-9), C3H7CO-Leu-Tyr-Arg-Lys-Met-Arg-Leu-Arg-Tyr-Pro-Val-NH-(CH2)11CONH2] (Butyryl-LYRKMRLRYPV[12Ado]-NH2) |  |  | 200 (≈ 114 µM) |  |  | 200 (≈ 114 µM) | 50 (≈ 28.4 µM) |  | 100 (≈ 56.8 µM) | 73
